Holding throughout (type): cell-based
In one assay the test system is P. vulgaris S-137B. In words: Antibacterial activity of Ceftazidime in presence of compounds of the invention (MIC). The settings on record: Proteus vulgaris, S137B; Table 6; P. vulgaris S-137B (ESBL type: Class C); Ceftazidime alone or with compound at fixed 4 mcg/ml as named in the composition. The method, then: (§1) The biological activity of representative compounds according to the invention against various bacterial strains was investigated. In a typical study, overnight grown bacterial cultures were diluted appropriately and inoculated on the agar media containing doubling dilutions of the test compounds. Observation for growth or no growth was performed after 16-20 hours of incubation at 35±2° C. in ambient air. The overall procedure was performed as per Clinical and Laboratory Standards Institute (CLSI) recommendations (Clinical and Laboratory Standards Institute (CLSI), Performance Standards for Antimicrobial Susceptibility Testing, 20th Informational Supplement, M 100-S20, Volume 30, No. 1, 2010).
(§2) The antibacterial activity of representative compounds according to the invention was also investigated in combination with at least one antibacterial agent using the above study protocol and the results are given Table 6.

Assay [1] has as its system K. pneumoniae ATCC 700603. The assay is described as above. The settings on record: Klebsiella pneumoniae, ATCC700603; Table 6; K. pneumoniae ATCC 700603 (ESBL type: Class A); Ceftazidime alone or with compound at fixed 4 mcg/ml as named in the composition. On the procedure:
as §1, §2

In a further assay the test system is E. coli M 50. In words: Antibacterial activity (MIC), agar dilution per CLSI. The settings on record: Escherichia coli, M50, Table 4; E. Coli M 50, Class C ESBL, MDR; read-out: MIC. A digest of the protocol:
(§3)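 Overnight bacterial cultures, suitably diluted, were inoculated onto agar media containing doubling dilutions of test compound. Plates were incubated 16-20 hours at 35±2° C. in ambient air and scored for growth or no growth following CLSI recommendations. MIC is reported in mcg/ml.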
On the technique in general: In agar dilution the substance is mixed into plates at graded concentrations.

The test system of the next assay is E. Coli W 13351. In words: Antibacterial activity (MIC) against MDR Gram negative strains. The settings on record: Escherichia coli; Table 4; E. Coli W 13351, Class A ESBL, MDR; read-out: MIC. A digest of the protocol:
as §3

The subject of another assay is K penumoniae H 521. The description is as above. The settings on record: Table 4; K penumoniae H 521, KPC ESBL, MDR; read-out: MIC. A digest of the protocol:
as §3

The subject of a further assay is E. Coli W 13353. Described as above. Conditions: Escherichia coli; Table 4; E. Coli W 13353, Class A ESBL, MDR; read-out: MIC. A digest of the protocol:
as §3

Another assay deals with K penumoniae H 525. The description is as above. Conditions: Table 4; K penumoniae H 525, KPC ESBL, MDR; read-out: MIC. A digest of the protocol:
as §3

The subject of another assay is E. Coli H 484. The description is as above. The settings on record: Escherichia coli; Table 4; E. Coli H 484, Class C ESBL, MDR; read-out: MIC. Put shortly:
as §3

The test system of another assay is E. Coli M 3. The description is as above. The settings on record: Escherichia coli; Table 5; E. Coli M 3, Class B ESBL, MDR; read-out: MIC. A digest of the protocol: as §3
In the next assay the test system is E. Coli B 89. Described as above. Conditions: Escherichia coli; Table 4; E. Coli B 89, Class C ESBL, MDR; read-out: MIC. A digest of the protocol:
as §3

A further assay has as its system K. penumoniae S 48. The description is as above. Conditions: Table 5; K. penumoniae S 48, Class B ESBL, MDR; read-out: MIC. A digest of the protocol:
as §3

The next assay concerns P. aeruginosa Ps 32. The description is as above. The settings on record: Pseudomonas aeruginosa, PS32; Table 5; P. aeruginosa Ps 32; read-out: MIC. A digest of the protocol: as §3
The next assay deals with P. aeruginosa Ps 21. The assay is described as above. Conditions: Pseudomonas aeruginosa, PS21; Table 5; P. aeruginosa Ps 21; read-out: MIC. Put shortly: as §3
A further assay concerns K penumoniae H 523. The description is as above. Conditions: Table 4; K penumoniae H 523, KPC ESBL, MDR; read-out: MIC. Put shortly: as §3
In another assay the test system is E. Coli M 44. Described as above. Conditions: Escherichia coli; Table 5; E. Coli M 44, Class B ESBL, MDR; read-out: MIC. A digest of the protocol: as §3
Another assay deals with E. Coli W 13352. The description is as above. The settings on record: Escherichia coli; Table 4; E. Coli W 13352, Class A ESBL, MDR; read-out: MIC. Put shortly: as §3
The subject of a further assay is P. aeruginosa ATCC 27853. Described as above. The settings on record: Pseudomonas aeruginosa, ATCC27853; Table 5; P. aeruginosa ATCC 27853; read-out: MIC. A digest of the protocol:
as §3

The structures appear in SMILES notation. Values after ≈ are worked out from the molar mass of the structure shown.

As to `CC(C)(O/N=C(\C(=O)N[C@@H]1C(=O)N2C(C(=O)[O-])=C(C[n+]3ccccc3)CS[C@H]12)c1csc(N)n1)C(=O)O` [Ceftazidime, reference compound], the MIC (in general, the least concentration at which growth counts as inhibited) in the assay on P. vulgaris S-137B is greater than 32 µg/mL; in assay [1] it was greater than 32 µg/mL; in the assay with E. coli M 50, greater than 32 µg/mL; in the assay with E. Coli W 13351 it was 32 µg/mL (≈ 58.5 µM); with K penumoniae H 521, greater than 32 µg/mL; in the assay with E. Coli W 13353, 32 µg/mL (≈ 58.5 µM). Also, the MIC with K penumoniae H 525, with E. Coli H 484, in the assay with E. Coli M 3, with E. Coli B 89, in the assay with K. penumoniae S 48 and in the assay with P. aeruginosa Ps 32 was greater than 32 µg/mL each time. The MIC was greater than 32 µg/mL with P. aeruginosa Ps 21; greater than 32 µg/mL with K penumoniae H 523; greater than 32 µg/mL in the assay on E. Coli M 44; greater than 32 µg/mL in the assay with E. Coli W 13352; 1 µg/mL (≈ 1.83 µM) in the assay with P. aeruginosa ATCC 27853.
